Series [1] in a line: Cytotoxicity in SH-SY5Y cells (MTT). The class given is cell-based. The following applies: human, SH-SY5Y neuronal cells, concentration reducing cell viability to 50% of control. As for the experimental part:
So, to study the neuroprotectant potential of β-diketones in the SH-SY5Y cell line, we firstly need to determine their cytotoxicity in the same cellular model. […] In addition to that, within each series, the introduction of a second fluorine atom in the left-hand side phenyl ring decreases also the cytotoxicity.
SH-SY5Y cells were seeded into 96-well plates at a density of 5 × 10^3 cells/well and grown in the incubator for 24 h. All compounds tested were dissolved and eventually further diluted in dimethylsulfoxide (DMSO). After overnight incubation, the cells were treated with different test concentrations (5, 10, 20, 50, 100, 150, 200 µM) in a final volume of 200 µL with four replicates each. […] Cell proliferation or viability was measured using the 3-(4,5-dimethylthiazol-2-yl)-2,5-diphenyl tetrazolium bromide (MTT) assay. After 24 h, 20 µL of MTT (5 mg/mL) was added to each well and the plate was incubated at 37 °C in the dark for 2 h. Supernatants were removed and the formazan crystals were solubilized in DMSO (200 µL/well), under 10 min shaking at room temperature. The reduction of MTT was quantified by absorbance at 570 nm Varioskan microplate reader (Thermo Fisher Scientific, Vantaa, Finland). Effects of the test compounds on cell viability were calculated using cells treated with vehicle as control. The data were subjected to linear regression analysis and the regression lines were plotted for the best fit. The IC50 (inhibition of cell viability) concentrations were calculated using the respective dose-response curves.

Series [2] is described as follows: Kinetic solubility by UV spectrometry in 10 mM PBS. Type of series: physicochemical. The note with it: 10 mM phosphate buffered saline, aqueous buffer, kinetic from dmso stock. As for the experimental part: Among the most important physicochemical parameters in drug-discovery, solubility and chemical stability in aqueous media are the determinants for non-toxic and brain-permeable drug-like compounds with good bioavailability. So, compounds with good aqueous solubility are the best candidates for drug-discovery progression. […] The assays were performed at room temperature, in 10 mM Phosphate Buffered Saline (PBS) from compound stocks in DMSO at 20 mM concentration.
A modified protocol was used from that described by Hoelke et al. for the determination of the kinetic solubility from DMSO compound solutions. A compound calibration curve (compound concentration vs. UV absorption) was prepared on a 48 well plate for each compound with concentrations in the range of 10 µM to […]. Each compound dilution was carried out by pipetting defined volumes of a 20 mM stock compound solution in DMSO into the wells and adding PBS 10 mM to reach a final volume of 500 µL/well. The final amount of DMSO per well was 2%. For the lower compound concentrations, an additional volume of DMSO was added into each well to reach the 2% of DMSO. Then, 200 µL of each dilution was transferred to a new 96 well plate for the measurement of the UV-spectra. One well in each row was left without compound as a blank and its UV absorbance was used as an offset correction. The experiments were carried out by duplicate.
(§1) In parallel compound saturation solutions were obtained and filtered from 20 mM compound stock in DMSO. So, 10 µL of 20 mM stock solution were dispensed to 190 µL of PBS 10 mM. The solutions were mixed, shaken in a microplate shaker for two hours, and then 160 µL of each solution were filtered and transferred to a new well plate for UV absorption measure. The compound stability in PBS 10 mM was determined at 24, 48 and 72 h with solutions prepared as those for the compound calibration curve.
Measurement of the UV-spectra was performed using a Varioskan microplate reader and spectra were taken in the range of 270–600 nm. Spectral bandwidth was set to 5 nm and the data pint interval was 10 nm. […]

Series [3] is described as follows: Chemical stability in 10 mM PBS. The following applies: 6b, 7b at 400 µM, curcumin at 50 µM. Type of series: physicochemical. As for the experimental part:
It is also important to know compound integrity at those concentrations used in biological assays, and for that, the chemical stability was determined in 10 mM PBS after 6 h, 24 h and 48 h.
as §1

The test system of series [4] is SH-SY5Y cells. In words: LDH release assay in H2O2-treated SH-SY5Y cells. Type of series: cell-based, human. The following applies: compound 5-50 µM for 24 h, then 200 µM H2O2 for 24 h. As for the experimental part: Additionally, the protection effect of 6b and 7b on cell death induced by 200 µM H2O2 was determined by measuring the lactate dehydrogenase (LDH) release in cell culture medium.
SH-SY5Y 96-well plates at a density of 5 × 10^3 cells/well and grown in the incubator for 24 h. Cells were pretreated for 24 h with different compound concentrations (5, 10, 20, 30, 40, 50 µM) and then exposed to 200 µM H2O2 for 24 h. Then, the supernatant was used in the LDH assay and the absorbance measured at 490nm in a Varioskan microplate reader after 30 min, according to the manufacturer’s instructions (LDH Cytotoxicity Assay Kit, Pierce^TM, Thermo Fisher Scientific, Vantaa, Finland). LDH leakage was calculated as the percentage of the control group.

In series [5] the test system is SH-SY5Y cells. In words: Mitochondrial membrane potential (JC-1, microplate reader) in SH-SY5Y cells under H2O2. The class given is cell-based, human. The following applies: SH-SY5Y, compound at different concentrations for 24 h, then 200 µM H2O2 for 24 h, JC-1. As for the experimental part:
To know whether β-diketones 6b and 7b will protect the mitochondrial membrane from depolarization under oxidative stress conditions, MMP experiments were carried out with the cationic dye JC-1 (5,5′,6,6′-tetrachloro-1,1′,3,3′-tetraethylbenzimi-dazolylcarbocyanine iodide). JC-1 enters selectively into mitochondria and reversibly change color from red to green as the membrane potential decrease. In healthy cells, JC-1 forms red fluorescent J-aggregates while in apoptotic cells with low MMP, JC-1 remains as monomers with green fluorescence. The ratio of J-aggregates to J-monomers is an indication of healthy non-apoptotic cells.
The fluorescent dye 5,5′,6,6′-tetrachloro-1,1′,3,3′-tetraethylbenzimidazolylcarbocyanine iodide (JC-1) was used for measuring MMP [111]. A decrease in fluorescence intensity represents mitochondrial membrane depolarization. For fluorescence ratio detection under oxidative stress conditions, 96 well plates were seeded with 3 × 10^3 SH-SY5Y cells and after 24 h incubation they were treated with test compound and left out for 24 h. Then, cells were exposed to different H2O2 concentrations for 24 h. After the incubation period, cells were washed twice with Hanks buffer and then stained with 5 µM JC-1 in culture media in dark, in a CO2 incubator at 37 °C for 20 min. At the end of the dye incubation period, cells were washed three times with Hanks buffer and 200 µL of fresh buffer was added. Cells were analyzed with a Varioskan microplate reader. J-aggregates red fluorescence intensity was measured at 535 nm excitation and 595 nm emission wavelength, while excitation at 485 nm and emission 535 nm wavelength was used for J-monomers green fluorescence. Results were expressed as the ratio of fluorescence intensity of J-aggregates to J-monomers. […] JC-1 aggregates show red fluorescence (peak emission at 590 nm) measured in the FL2 channel. Thus, healthy non-apoptotic cells are detected in both FL1 and FL2 channels, while cells with disrupted mitochondrial function show fluorescence in FL1 channel but reduced FL2 intensity.

SMILES strings stand for the structures. Values after ≈ are worked out from the molar mass of the structure shown.

As for `O=C(/C=C(O)/C=C/c1cc(F)c(O)cc1F)C(F)(F)F` [Compound 6b, (3Z,5E)-6-(2,5-difluoro-4-hydroxyphenyl)-1,1,1-trifluoro-4-hydroxyhexa-3,5-dien-2-one], the 50% inhibitory concentration (IC50) at 24 h in series [1] was 187 ± 13.2 µM. Besides, in series [2], the solubility at 2 h came to 281 ± 9 µg/mL (≈ 955 µM). In series [3], the “Remaining Compound (%) 0 h” value is given as 100%, the “Remaining Compound (%) 6 h” value is on record as 96.1 ± 0.5%, the “Remaining Compound (%) 24 h” value amounted to 92.2 ± 1.6% and the “Remaining Compound (%) 48 h” value amounted to 90.4 ± 3.0%. In addition, the LDH leakage result in the series with SH-SY5Y cells [4] was “reduced the LDH leakage”. In addition, the MMP recovery in the series on SH-SY5Y cells [5] is 18–25%.
On to `O=C(/C=C(O)/C=C/c1ccc(O)c(F)c1F)C(F)(F)F` [Compound 7b, (3Z,5E)-6-(2,3-Difluoro-4-hydroxyphenyl)-1,1,1-trifluoro-4-hydroxyhexa-3,5-dien-2-one], for which the concentration for half-maximal inhibition (IC50) at 24 h in series [1] amounted to 200 ± 17.1 µM. The solubility at 2 h in series [2] was determined as 298 ± 7 µg/mL (≈ 1010 µM). Also, in series [3], the “Remaining Compound (%) 0 h” value is listed as 100%, the “Remaining Compound (%) 6 h” value worked out at 95.7 ± 1.0%, the “Remaining Compound (%) 24 h” value is 90.9 ± 1.2% and the “Remaining Compound (%) 48 h” value stood at 87.8 ± 2.3%. Also, in the series on SH-SY5Y cells [4], the LDH leakage entry is “reduced the LDH leakage”. In addition, the MMP recovery in the series on SH-SY5Y cells [5] is recorded as 18–25%.
